Experimental data from PMC6946680, “Modulation of brain cation-Cl^− cotransport via the SPAK kinase inhibitor ZT-1a” (Nature Communications, 2020).
Where “and” joins values, the source holds several entries; their conditions need not be identical. Equal entries are not always repeated.

What was measured:
NKCC1 = assay: 86Rb+ uptake assay for NKCC1 activity in HEK-293 cells; format: cell-based; design: key to 86Rb+ uptake: 86Rb+ uptake in CPM per mg protein; conditions: for 86Rb+ uptake: replicates
Experimental: Thirty-six hours post transfection, cells were exposed for 30 min to either control isotonic conditions or hypotonic low [Cl^−] conditions (to activate the SPAK/OSR1 pathway), and then treated for an additional 30 min in the same conditions with the indicated ZT-1a concentrations in the presence of 1 mM ouabain and 0.1 mM bumetanide. Ten-minute ^86Rb^+ uptake values were quantified by scintillation counting, normalized per mg protein for each condition, and plotted for both isotonic and hypotonic conditions. ***p < 0.001; **p < 0.01; *p < 0.05; ns—nonsignificant [by one-way ANOVA with post hoc testing (n = 6, error bars represent the mean ± SEM)]. b ^86Rb^+ uptake assays in the presence of ZT-1a measure transport activity of NKCC1. […] Thirty-six hours post transfection, cells were exposed for 30 min to either control isotonic conditions or hypotonic low [Cl^−] conditions (to activate the SPAK/OSR1 pathway), and then treated in the same conditions for an additional 30 min with 10 µM ZT-1a or 0.1 mM bumetanide (Bum) in the presence of 1 mM ouabain (Na^+/K^+-ATPase inhibitor). ^86Rb^+ uptake was allowed to proceed for 10 min and was then quantified by scintillation counting. ^86Rb^+ uptake CPMs were normalized per mg protein and plotted for both isotonic and hypotonic conditions. […] Thirty-six hours post transfection, cells were exposed for 30 min to either control isotonic conditions or hypotonic low [Cl^−] conditions (to activate the SPAK/OSR1 pathway), and then treated for an additional 30 min in the same conditions with the indicated ZT-1a concentrations in the presence of 1 mM ouabain. Ten-minute ^86Rb^+ uptake values were quantified by scintillation counting, normalized per mg protein for each condition, and plotted for both isotonic and hypotonic conditions. ***p < 0.001; **p < 0.01; *p < 0.05; ns—nonsignificant [by one-way ANOVA with post hoc testing (n = 6, error bars represent the mean ± SEM)].
This stimulating medium was then removed and replaced with isotonic medium containing inhibitors plus 2 µCi/ml ^86Rb^+. After incubation for 10 min at 37 °C, cells were rapidly washed three times with the respective ice-cold nonradioactive medium. Washed cells were lysed in 300 µl of ice-cold lysis buffer and ^86Rb^+ uptake was quantitated by liquid scintillation counting (PerkinElmer).

tSPAK tOSR1 = assay: Immunoblot of total SPAK/OSR1 in ischemic mouse brain membrane and cytosol fractions; format: in vivo; conditions: Cytosol; IL; single samples

Structure (SMILES): Cc1cc(C(C#N)c2ccc(Cl)cc2)c(Cl)cc1NC(=O)c1cc(Cl)ccc1O (stereo not shown) [ZT-1a, 5-chloro-N-(5-chloro-4-((4-chlorophenyl)(cyano)methyl)-2-methylphenyl)-2-hydroxybenzamide]
- 86Rb+ uptake (NKCC1; Fig 3b right, NKCC1, ZT-1a 1 uM, Hypotonic low Cl-): 31312.2 and 30912.6 and 28110.4 and 29118.3 and 28103.5 and 29176.8
- 86Rb+ uptake (NKCC1; Fig 3b right, NKCC1, ZT-1a 1 uM, Isotonic control): 5076.2 and 4867.3 and 5812.7 and 4239.7 and 5129.6 and 5519.2
- 86Rb+ uptake (NKCC1; Fig 3b right, NKCC1, ZT-1a 3 uM, Hypotonic low Cl-): 14078.7 and 13156.2 and 15002.4 and 14182.5 and 14354.3 and 14621.6
- 86Rb+ uptake (NKCC1; Fig 3b right, NKCC1, ZT-1a 3 uM, Isotonic control): 3812.1 and 3286.7 and 4513.3 and 4013.5 and 3012.8 and 3586.3
- 86Rb+ uptake (NKCC1; Fig 3b right, NKCC1, ZT-1a 10 uM, Hypotonic low Cl-): 3712.6 and 5014.2 and 4381.3 and 3518.2 and 4604.5 and 3837.1
- 86Rb+ uptake (NKCC1; Fig 3b right, NKCC1, ZT-1a 10 uM, Isotonic control): 1476.7 and 1378.3 and 1409.2 and 1215.2 and 1522.8 and 1368.4
- 86Rb+ uptake (NKCC1; Fig 3b, NKCC1 + 1a (10 µM), Hypotonic low Cl-): 7709.2 and 9015.3 and 7102.3 and 8791.5 and 8682.5 and 8108.1
- 86Rb+ uptake (NKCC1; Fig 3b, NKCC1 + 1a (10 µM), Isotonic control): 1446.7 and 1247.2 and 1369.6 and 1195.7 and 1501.2 and 1382.8
- NKCC1-mediated K+ influx (NKCC1; ZT-1a at concentration > 1 µM, isotonic or hypotonic low Cl−): significantly inhibited
- tSPAK tOSR1/GAPDH (fold veh-CL) (tSPAK tOSR1): 1.10 fold veh-CL and 1.64 fold veh-CL and 1.23 fold veh-CL and 1.65 fold veh-CL and 0.87 fold veh-CL
